# Experimental data taken from patent US20250144179A1, “PEPTIDE HORMONE TO PREVENT OR TREAT VASOSPASM, BRAIN INJURY OR CEREBRAL EDEMA” (UNIVERSITY OF FLORIDA RESEARCH FOUNDATION, INCORPORATED, priority 2022, published 2025).
# Columns and labels:
# [1] = test system: wild-type mice, SAH model; assay: Delayed cerebral vessel casting, MCA diameter (vasospasm) after SAH; type: in vivo, mouse
# Protocol: Synthetic adropin^34-76 peptide was supplied from Bachem (Bubendorf, Switzerland) and diluted in 0.1% BSA in saline. 0.1% BSA in saline was used as vehicle control for all experiments. […] For experiments ending at 24 hours post-SAH, an identical dose of adropin/vehicle was given again 12 hours later. For experiments ending 7 days post-SAH, adropin/vehicle was given again on days 1, 3 & 5 post-SAH. In the aneurysm rupture model, adropin was given at a dose of 450 nmol/kg starting 3 days before aneurysm induction (elastase injection). Adropin was given every other day until sacrifice
# SAH was modeled using the anterior circulation single autologous blood injection method^25,33 with minor adjustments. Mice were anesthetized with ketamine (100 mg/kg) and xylazine (10 mg/kg) before removing hair from scalp and cleaning with serial betadine—saline washes. […]
# (§1) Middle cerebral artery diameter were measured as previously reported.^36,37 One week post-SAH, mice were deeply anesthetized with ketamine and xylazine before being serially perfused through the left ventricle with PBS (5 mL), 4% PFA (15 mL), and 20% India ink dissolved in 5% gelatin. […] Brains were imaged and analyzed by an observer blinded to group assignment. The narrowest diameter within the first 2000 μm of the middle cerebral artery (MCA) after the terminal interior carotid artery bifurcation (M1 segment) was measured to assess vasospasm. […]
# [2] = test system: eNOS^−/− mice, SAH model; assay: MCA diameter (vasospasm) after SAH in eNOS knockout mice; type: in vivo, mouse; settings: one week post-SAH
# From the text: All animal experiments were approved by IACUC (Institutional Animal Care and Use Committee) and performed in accordance with ARRIVE (Animal Research: Reporting of In Vivo Experiments) guidelines. All animals were 12-15-week-old females and were housed in pathogen-free housing with ad libitum food and water and 12-h light/dark cycling. Wild-type C57B1/6 mice were received from Charles River Labs (Wilmington, Mass.) and eNOS knockout mice were obtained from The Jackson Laboratory (Bar Harbor, Maine). eNOS knockout breeding pairs were genotyped prior to breeding and F1 progeny used for all experiments. The following primers were used for genotyping: eNOS knockout (Nos3^−/−): F-5′-[…]-3′, R-5′-[…]-3′. All animals underwent twice daily monitoring from institutional animal care services staff and/or investigators. […]
# as §1
substance,measurement,setting,value
adropin (CHSRSADVDSLSESSPNSSPGPCPEKAPPPQKPSHEGSYLLQP) [Synthetic adropin^34-76 peptide from Bachem],ipsilateral MCA diameter (cerebral vasospasm),"[1]; seven days post-SAH, treatment started 15 minutes post-SAH",adropin-treatment reversed this phenotype
same,cerebral vasospasm (MCA diameter),[1]; treatment initiated at 24 hours post-SAH,strong trend for reduced cerebral vasospasm
same,vasospasm (MCA diameter),[2],adropin did not prevent vasospasm
